Results reported in patent publication US11384078B2, “5,6-fused-bicyclic compounds and compositions for the treatment of parasitic diseases” (NOVARTIS AG, priority 2017, dated 2022).

Key:
Type in all cases: cell-based
[1] = system: Leishmania donovani axenic amastigote; assay: In vitro assay for growth inhibition of Leishmania donovani axenic amastigote (Cell TiterGlo luminescence); settings: Leishmania donovani, L. donovani axenic amastigotes in vitro; read-out: L. donovani amastigotes EC50
Protocol: Abbreviations as used herein below have the corresponding meaning: • CPRG Chlorophenol Red-P-D-galactopyranoside • ATP adenosine triphosphate • BSA bovine serum albumin • DMSO dimethyl sulfoxide • FBS fetal bovine serum • PBS phosphate buffered saline • RPMI 1640 Rosweli Park Memorial Institute (RPMI) 1640 medium In Vitro Assay for Growth Inhibition of Leishmania donovani Axenic Amastiqote
Leishmania donovani axenic amastigote parasites are grown at 37° C., 5% CO2 in media made of RPMI 1640, 4 mM L-glutamine, 20% heat inactivated FBS, 100 units/ml of penicillin and 100 μg/ml of streptomycin, 23 μM folic acid, 100 μM adenosine, 22 mM D-glucose, 25 mM MES. The pH of media is adjusted to 5.5 at 37° C. using HCl. 20 μL of media is first dispensed into 384 well plates and 100 nL of the compounds of invention in DMSO are added to the plate wells. At the same time control compounds and DMSO are added to plates to serve as the positive and negative controls, respectively. 40 μL of parasite culture (9600 parasites) are then added to the plate wells. The plates are then placed into incubators. After two days incubation, 20 μL of Cell TiterGlo® (Promega) is added to the plate wells. The luminescence signal of each well is measured using the Envision reader (Perkin Elmer).

[2] = system: Trypanosoma cruzi amastigotes cultured in 3T3 fibroblast cells; assay: Assay for growth inhibition of kinetoplastid parasite Trypanosoma cruzi (beta-galactosidase Tulahuen strain, CPRG readout); settings: Trypanosoma cruzi, Fibroblast, T. cruzi amastigotes in 3T3 fibroblast cells; read-out: Buckner infectious T. cruzi EC50
Source text: Assay for Growth Inhibition of Kinetoplastid Parasite Trypanosoma cruzi
Compounds of the invention can be assayed for inhibitor activity against Trypanosoma cruzi amastigotes cultured in 3T3 fibroblast cells. The assay is done using the mammalian stage (amastigotes) of T. cruzi that replicates in the intracellular space of host cells. The host cells are initially infected with the culture-derived trypomastigotes that rapidly invade and then divide as amastigotes. The protocol uses the Tulahuen strain of T. cruzi that has been engineered to express the E. coli beta-galactosidase gene (Lac-Z) (Antimicr. Agents Chemoth. 40:2592, 1996). This allows for a colorimetric readout by using the substrate CPRG and an absorbance plate reader.
3T3 fibroblast cells are re-suspended in RPMI-1640 medium without phenol red medium supplemented with 10% FBS (heat inactivated), 100 μg/ml penicillin, and 100 μg/ml streptomycin. Forty μL of suspension (1,000 cells) is dispensed into 384-well plates and incubated overnight at 37° C. temperature and in atmosphere containing 5% CO2. The following day, 100 nL of compounds of the invention in DMSO are added to plate wells containing 3T3 cells. At the same time control compounds (benznidazole and nifurtimox) and DMSO are added to plates to serve as the positive and negative controls, respectively. After that, 10 μL of media containing 10,000 T. cruzi trypomastigotes are added to each plate well and plates are placed back into incubators. After 6 day incubation, 10 μL of reagent solution (0.6 mM CPRG, 0.6% NP-40 in PBS) is added to plates and incubated at room temperature for 2 hours. Absorbance is then measured on SpectraMax GEMINI fluorimeter to determine relative number of T. cruzi cells present in each plate well.

[3] = system: Trypanosoma brucei brucei (Lister 427) strain; assay: Assay for growth inhibition against Trypanosoma brucei brucei (Cell TiterGlo ATP luminescence); settings: Trypanosoma brucei, T. brucei brucei (Lister 427); read-out: T. Brucei (HAT) EC50
Protocol: Assay for Growth Inhibition Against Trypanosoma brucei brucei
The proliferation is quantified by the addition of Cell TiterGlo® (Promega®) a luminescent cell viability assay that measures the number of viable cells in culture based on the quantification of cellular ATP amount, which is an indicator of metabolically active cells.
Trypanosoma brucei brucei (Lister 427) strain was grown in Hirumi 9 (HMI-9) media supplemented with 10% v/v fetal bovine serum (FBS) and 10% v/v serum plus. For measurement of cell proliferation inhibition, test compounds were three fold serially diluted in duplicates to 384-well white plates, resulting in 10 dilutions for each compound. A volume of 40 μL of T. b. brucei culture (10,000 parasites/mL) was added to each well, and the assay plates were incubated at 37° C. for 2 days in a CO2 incubator. Growth inhibition was monitored by measuring ATP levels, which, is used as a surrogate marker for growth. Relative luminescence units were measured using TECAN® M1000 after 30 min of adding 40 μl of Cell TiterGlo®. IC50 values were determined by analyzing the data using HELIOS software. IC50 is defined as the lowest concentration of the compound that inhibited 50% growth of the T. b. brucei wild type strain compared to untreated controls.

Cc1cccnc1-c1cnc2nn(-c3cc(NC(=O)N4CC(F)(F)C4)ccc3F)cc2c1 [Compound 5, 3,3-difluoro-N-(4-fluoro-3-(5-(3-methylpyridin-2-yl)-2H-pyrazolo[3,4-b]pyridin-2-yl)phenyl)azetidine-1-carboxamide] showed an EC50 [1] of 3.6 nM, an EC50 [2] of 5.3 nM and an EC50 [3] of under 23 nM.

In the case of Cc1cccnc1-c1cnc2nn(-c3cc(NC(=O)N4CC(F)C4)ccc3F)cc2c1 [Compound 6, 3-fluoro-N-(4-fluoro-3-(5-(3-methylpyridin-2-yl)-2H-pyrazolo[3,4-b]pyridin-2-yl)phenyl)azetidine-1-carboxamide], the EC50 [1] is reported as 12 nM, the EC50 [2] is reported as 9.9 nM and the EC50 [3] is reported as under 23 nM.

For O=C(Nc1ccc(F)c(-n2cc3cc(-c4ccccn4)cnc3n2)c1)c1ccc(F)o1 [Compound 11, 5-fluoro-N-(4-fluoro-3-(5-(pyridin-2-yl)-2H-pyrazolo[3,4-b]pyridin-2-yl)phenyl)furan-2-carboxamide], the EC50 [1] was 2.8 nM, the EC50 [2] was 1 nM and the EC50 [3] was over 50000 nM.

In the case of O=C(Nc1ccc(F)c(-n2cc3cc(CC4CCC4)cnc3n2)c1)N1CC(F)C1 [Compound 26, N-{3-[5-(cyclobutylmethyl)-2H-pyrazolo[3,4-b]pyridin-2-yl]-4-fluorophenyl}-3-fluoroazetidine-1-carboxamide], the EC50 [1] is reported as 9.6 nM, the EC50 [2] is reported as 12 nM and the EC50 [3] is reported as under 23 nM.

Molecule O=C(Nc1ccc(F)c(-n2cc3cc(C4CCC4)cnc3n2)c1)N1CC(F)(F)C1 [Compound 31, N-(3-{5-cyclobutyl-2H-pyrazolo[3,4-b]pyridin-2-yl}-4-fluorophenyl)-3,3-difluoroazetidine-1-carboxamide] has an EC50 [1] of 6.2 nM, an EC50 [2] of 8.3 nM and an EC50 [3] of under 23 nM.

O=C(Nc1ccc(F)c(-n2cc3cc(CC4CCC4)cnc3n2)c1)N1CC(F)(F)C1 [Compound 37, N-{3-[5-(cyclobutylmethyl)-2H-pyrazolo[3,4-b]pyridin-2-yl]-4-fluorophenyl}-3,3-difluoroazetidine-1-carboxamide] gave an EC50 [1] of 23 nM, an EC50 [2] of 26 nM and an EC50 [3] of under 23 nM.

O=C(Nc1ccc(F)c(-n2cc3cc(C4CCC4)cnc3n2)c1)N1CC[C@@H](F)C1 [Compound 45, (3R)-N-(3-{5-cyclobutyl-2H-pyrazolo[3,4-b]pyridin-2-yl}-4-fluorophenyl)-3-fluoropyrrolidine-1-carboxamide] gave an EC50 [1] of 40 nM, an EC50 [2] of 28 nM and an EC50 [3] of under 23 nM.

With O=C(Nc1ccc(F)c(-n2cc3cc(CC4CCC4)cnc3n2)c1)N1CC[C@@H](F)C1 [Compound 51, (3R)-N-{3-[5-(cyclobutylmethyl)-2H-pyrazolo[3,4-b]pyridin-2-yl]-4-fluorophenyl}-3-fluoropyrrolidine-1-carboxamide] the EC50 [1] was 15 nM, the EC50 [2] was 19 nM and the EC50 [3] was under 23 nM.

O=C(Nc1ccc(F)c(-n2cc3cc(CC4CCC4)cnc3n2)c1)c1ccco1 [Compound 62, N-{3-[5-(cyclobutylmethyl)-2H-pyrazolo[3,4-b]pyridin-2-yl]-4-fluorophenyl}furan-2-carboxamide] gave an EC50 [1] of 39 nM, an EC50 [2] of 5.1 nM and an EC50 [3] of under 23 nM.

Work on CC(C)c1cnc2nn(-c3cc(NC(=O)C4(C)CCCO4)ccc3F)cc2c1 (stereo not drawn) [Compound 77, N-{4-fluoro-3-[5-(propan-2-yl)-2H-pyrazolo[3,4-b]pyridin-2-yl]phenyl}-2-methyloxolane-2-carboxamide] yielded an EC50 [1] of 17000 nM, an EC50 [2] of 6500 nM and an EC50 [3] of 8500 nM.

CC(C)c1cnc2nn(-c3cc(NC(=O)N4CCC4)ccc3F)cc2c1 [Compound 100, N-{4-fluoro-3-[5-(propan-2-yl)-2H-pyrazolo[3,4-b]pyridin-2-yl]phenyl}azetidine-1-carboxamide] was tested, and the EC50 [1] was 9.2 nM, the EC50 [2] was 4.2 nM and the EC50 [3] was under 23 nM.

In the case of CC(C)c1cnc2nn(-c3cc(NC(=O)c4ccc(CN(C)C)o4)ccc3F)cc2c1 [Compound 111, 5-[(dimethylamino)methyl]-N-{4-fluoro-3-[5-(propan-2-yl)-2H-pyrazolo[3,4-b]pyridin-2-yl]phenyl}furan-2-carboxamide], the EC50 [1] is reported as 8700 nM, the EC50 [2] is reported as 2900 nM and the EC50 [3] is reported as 10000 nM.

CC(C)c1cnc2nn(-c3cc(NC(=O)c4ccc(C#N)o4)ccc3F)cc2c1 [Compound 112, 5-cyano-N-{4-fluoro-3-[5-(propan-2-yl)-2H-pyrazolo[3,4-b]pyridin-2-yl]phenyl}furan-2-carboxamide] was tested, and the EC50 [1] was 16 nM, the EC50 [2] was 2.8 nM and the EC50 [3] was under 23 nM.

Cc1cc(C(=O)Nc2ccc(F)c(-n3cc4cc(C(C)C)cnc4n3)c2)oc1C [Compound 114, N-{4-fluoro-3-[5-(propan-2-yl)-2H-pyrazolo[3,4-b]pyridin-2-yl]phenyl}-4,5-dimethylfuran-2-carboxamide] gave an EC50 [1] of 310 nM, an EC50 [2] of 45 nM and an EC50 [3] of 54 nM.

Work on Cc1ccoc1C(=O)Nc1ccc(F)c(-n2cc3cc(C(C)C)cnc3n2)c1 [Compound 115, N-{4-fluoro-3-[5-(propan-2-yl)-2H-pyrazolo[3,4-b]pyridin-2-yl]phenyl}-3-methylfuran-2-carboxamide] yielded an EC50 [1] of 150 nM, an EC50 [2] of 14 nM and an EC50 [3] of under 23 nM.

Work on CC(C)c1cnc2nn(-c3cc(NC(=O)c4cc5ccccc5o4)ccc3F)cc2c1 [Compound 116, N-{4-fluoro-3-[5-(propan-2-yl)-2H-pyrazolo[3,4-b]pyridin-2-yl]phenyl}-1-benzofuran-2-carboxamide] yielded an EC50 [1] of 3100 nM, an EC50 [2] of 880 nM and an EC50 [3] of 1500 nM.

CC(C)c1cnc2nn(-c3cc(NC(=O)C4(C)CC(F)(F)C4)ccc3F)cc2c1 [Compound 117, 3,3-difluoro-N-{4-fluoro-3-[5-(propan-2-yl)-2H-pyrazolo[3,4-b]pyridin-2-yl]phenyl}-1-methylcyclobutane-1-carboxamide] showed an EC50 [1] of 9300 nM, an EC50 [2] of 5500 nM and an EC50 [3] of 13000 nM.

CC(C)c1cnc2nn(-c3cc(NC(=O)C4CC(F)(F)C4)ccc3F)cc2c1 [Compound 118, 3,3-difluoro-N-{4-fluoro-3-[5-(propan-2-yl)-2H-pyrazolo[3,4-b]pyridin-2-yl]phenyl}cyclobutane-1-carboxamide] gave an EC50 [1] of 690 nM, an EC50 [2] of 1100 nM and an EC50 [3] of 1400 nM.

Work on COC(=O)C12CC(C(=O)Nc3ccc(F)c(-n4cc5cc(C(C)C)cnc5n4)c3)(C1)C2 [Compound 120, methyl 3-({4-fluoro-3-[5-(propan-2-yl)-2H-pyrazolo[3,4-b]pyridin-2-yl]phenyl}carbamoyl)bicyclo[1.1.1]pentane-1-carboxylate] yielded an EC50 [1] of 5200 nM, an EC50 [2] of 4300 nM and an EC50 [3] of 1800 nM.

Molecule CC(C)c1cnc2nn(-c3cc(NC(=O)N4CC(F)C4)ccc3F)cc2c1 [Compound 156, 3-fluoro-N-{4-fluoro-3-[5-(propan-2-yl)-2H-pyrazolo[3,4-b]pyridin-2-yl]phenyl}azetidine-1-carboxamide] has an EC50 [1] of 9.3 nM, an EC50 [2] of 5.1 nM and an EC50 [3] of under 23 nM.

C[C@H]1CN(c2cnc3nn(-c4cc(NC(=O)N5CC(F)C5)ccc4F)cc3c2)C[C@H](C)O1 [Compound 177, N-(3-{5-[(2S,6S)-2,6-dimethylmorpholin-4-yl]-2H-pyrazolo[3,4-b]pyridin-2-yl]-4-fluorophenyl)-3-fluoroazetidine-1-carboxamide] showed an EC50 [1] of 27 nM, an EC50 [2] of 55 nM and an EC50 [3] of under 23 nM.
